From PubChem BioAssay AID1918998 (Molecular Pharmacology Branch, DTP, NCI, 2023)
Values joined by “and” are separate entries in the source; they are usually repeats but may differ in a detail not shown here. Identical values can stand only once. Each block holds one molecule with its values, some of them ahead of it.

Tested on: 521955-158-R2-J5-PDC complex spheroid growth
Test: Anticancer human tumor 521955-158-R2-J5-PDC patient-derived pancreatic carcinoma cell line growth inhibition [AhR]
Conditions: for viability, T/C: stronger effect = lower value
How it was run: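 Complex tumor spheroids co-cultured with HUVEC and human MSC stroma; AhR antagonists tested in combination with standard-of-care and investigational agents. Top concentration at or near clinical Cmax (else 10 microM), half-log dilutions; growth expressed as percent test/control.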

[1] = curve of first compound, second compound 0.1 µM
[2] = curve of first compound, second compound 0.316 µM
[3] = curve of first compound, second compound 1 µM
[4] = curve of first compound, second compound 3.16 µM
[5] = curve of first compound, second compound 10 µM
[6] = second compound 0.1 µM, first compound 0.0316 µM
[7] = second compound 0.1 µM, first compound 0.1 µM
[8] = second compound 0.1 µM, first compound 0.316 µM
[9] = second compound 0.1 µM, first compound 1 µM
[10] = second compound 0.1 µM, first compound 3.16 µM
[11] = second compound 0.1 µM, first compound 10 µM
[12] = second compound 0.316 µM, first compound 0.0316 µM
[13] = second compound 0.316 µM, first compound 0.1 µM
[14] = second compound 0.316 µM, first compound 0.316 µM
[15] = second compound 0.316 µM, first compound 1 µM
[16] = second compound 0.316 µM, first compound 3.16 µM
[17] = second compound 0.316 µM, first compound 10 µM
[18] = second compound 1 µM, first compound 0.0316 µM
[19] = second compound 1 µM, first compound 0.1 µM
[20] = second compound 1 µM, first compound 0.316 µM
[21] = second compound 1 µM, first compound 1 µM
[22] = second compound 1 µM, first compound 3.16 µM
[23] = second compound 1 µM, first compound 10 µM
[24] = second compound 3.16 µM, first compound 0.0316 µM
[25] = second compound 3.16 µM, first compound 0.1 µM
[26] = second compound 3.16 µM, first compound 0.316 µM
[27] = second compound 3.16 µM, first compound 1 µM
[28] = second compound 3.16 µM, first compound 3.16 µM
[29] = second compound 3.16 µM, first compound 10 µM
[30] = second compound 10 µM, first compound 0.0316 µM
[31] = second compound 10 µM, first compound 0.1 µM
[32] = second compound 10 µM, first compound 0.316 µM
[33] = second compound 10 µM, first compound 1 µM
[34] = second compound 10 µM, first compound 3.16 µM
[35] = second compound 10 µM, first compound 10 µM
[36] = second compound 0.1 µM, first compound 0.00949 µM
[37] = second compound 0.1 µM, first compound 0.03 µM
[38] = second compound 0.1 µM, first compound 0.0949 µM
[39] = second compound 0.1 µM, first compound 0.3 µM
[40] = second compound 0.316 µM, first compound 0.00949 µM
[41] = second compound 0.316 µM, first compound 0.03 µM
[42] = second compound 0.316 µM, first compound 0.0949 µM
[43] = second compound 0.316 µM, first compound 0.3 µM
[44] = second compound 1 µM, first compound 0.00949 µM
[45] = second compound 1 µM, first compound 0.03 µM
[46] = second compound 1 µM, first compound 0.0949 µM
[47] = second compound 1 µM, first compound 0.3 µM
[48] = second compound 3.16 µM, first compound 0.00949 µM
[49] = second compound 3.16 µM, first compound 0.03 µM
[50] = second compound 3.16 µM, first compound 0.0949 µM
[51] = second compound 3.16 µM, first compound 0.3 µM
[52] = second compound 10 µM, first compound 0.00949 µM
[53] = second compound 10 µM, first compound 0.03 µM
[54] = second compound 10 µM, first compound 0.0949 µM
[55] = second compound 10 µM, first compound 0.3 µM
[56] = second compound 0.1 µM, first compound 0.949 µM
[57] = second compound 0.1 µM, first compound 3 µM
[58] = second compound 0.316 µM, first compound 0.949 µM
[59] = second compound 0.316 µM, first compound 3 µM
[60] = second compound 1 µM, first compound 0.949 µM
[61] = second compound 1 µM, first compound 3 µM
[62] = second compound 3.16 µM, first compound 0.949 µM
[63] = second compound 3.16 µM, first compound 3 µM
[64] = second compound 10 µM, first compound 0.949 µM
[65] = second compound 10 µM, first compound 3 µM
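For viability, T/C in this document: spheroids mix tumor cells with HUVEC endothelium and human MSC stroma; luminescence taken as viability surrogate after a week of drug exposure.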

Compound: COc1ccc([C@@H](O)c2cc(-c3ncnc4cc(N5CCOCC5)ccc34)c(F)cc2Cl)nn1 + Cc1cncc(-c2nc(NCCc3c[nH]c4ccccc34)c3ncn(C(C)C)c3n2)c1
IC50 [1]: > 10000 nM
IC50 [2]: > 10000 nM
IC50 [3]: > 10000 nM
IC50 [4]: > 10000 nM
IC50 [5]: > 10000 nM
viability, T/C [6]: 102%
viability, T/C [7]: 102%
viability, T/C [8]: 99.7%
viability, T/C [9]: 78.1%
viability, T/C [10]: 65.8%
viability, T/C [11]: 50.8%
viability, T/C [12]: 118%
viability, T/C [13]: 116%
viability, T/C [14]: 113%
viability, T/C [15]: 85.1%
viability, T/C [16]: 75.1%
viability, T/C [17]: 54.4%
viability, T/C [18]: 115%
viability, T/C [19]: 127%
viability, T/C [20]: 113%
viability, T/C [21]: 104%
viability, T/C [22]: 83.3%
viability, T/C [23]: 61.6%
viability, T/C [24]: 134%
viability, T/C [25]: 153%
viability, T/C [26]: 130%
viability, T/C [27]: 111%
viability, T/C [28]: 96.3%
viability, T/C [29]: 65.9%
viability, T/C [30]: 138%
viability, T/C [31]: 131%
viability, T/C [32]: 175%
viability, T/C [33]: 114%
viability, T/C [34]: 62.9%
viability, T/C [35]: 46.6%

Compound: O=C(C=Cn1cnc(-c2cc(C(F)(F)F)cc(C(F)(F)F)c2)n1)NNc1cnccn1
viability, T/C (compound 0.00949 µM): 73.8% and 59.8% (2×)
viability, T/C (compound 0.03 µM): 59.6% and 58.9% and 58.5%
viability, T/C (compound 0.0949 µM): 50.6% and 38.9% and 40.5%
viability, T/C (compound 0.3 µM): 55.6% and 49.5% and 37.7%
viability, T/C (compound 0.949 µM): 45.3% and 45.9% and 37.6%
viability, T/C (compound 3 µM): 29.1% and 24.8% and 27.1%
IC50 (curve of compound): 256 nM and 163 nM and 48.8 nM

Compound: Nc1ncn(C2CC(O)C(CO)S2)c(=O)n1 (stereo not drawn) + CC(CO)NC(=O)c1cc(-c2ccc(Cl)cc2)nn(-c2cnn(C)c2)c1=O
IC50 [1]: > 300 nM
IC50 [2]: > 300 nM
IC50 [3]: > 300 nM
IC50 [4]: > 300 nM
IC50 [5]: > 300 nM
viability, T/C (second compound 0.1 µM, first compound 0.000949 µM): 79.4%
viability, T/C (second compound 0.1 µM, first compound 0.003 µM): 89.4%
viability, T/C [36]: 97.9%
viability, T/C [37]: 89.9%
viability, T/C [38]: 72.6%
viability, T/C [39]: 71.2%
viability, T/C (second compound 0.316 µM, first compound 0.000949 µM): 115%
viability, T/C (second compound 0.316 µM, first compound 0.003 µM): 107%
viability, T/C [40]: 107%
viability, T/C [41]: 116%
viability, T/C [42]: 94.1%
viability, T/C [43]: 84.4%
viability, T/C (second compound 1 µM, first compound 0.000949 µM): 107%
viability, T/C (second compound 1 µM, first compound 0.003 µM): 107%
viability, T/C [44]: 106%
viability, T/C [45]: 108%
viability, T/C [46]: 73%
viability, T/C [47]: 99.3%
viability, T/C (second compound 3.16 µM, first compound 0.000949 µM): 102%
viability, T/C (second compound 3.16 µM, first compound 0.003 µM): 116%
viability, T/C [48]: 141%
viability, T/C [49]: 111%
viability, T/C [50]: 86.1%
viability, T/C [51]: 73.1%
viability, T/C (second compound 10 µM, first compound 0.000949 µM): 73.8%
viability, T/C (second compound 10 µM, first compound 0.003 µM): 81.3%
viability, T/C [52]: 102%
viability, T/C [53]: 76.9%
viability, T/C [54]: 88.3%
viability, T/C [55]: 81.5%

Compound: COc1ccc([C@@H](O)c2cc(-c3ncnc4cc(N5CCOCC5)ccc34)c(F)cc2Cl)nn1 + CC(CO)NC(=O)c1cc(-c2ccc(Cl)cc2)nn(-c2cnn(C)c2)c1=O
IC50 [1]: > 10000 nM
IC50 [2]: 3860 nM
IC50 [3]: 5970 nM
IC50 [4]: 2970 nM
IC50 [5]: 1900 nM
viability, T/C [6]: 94.8%
viability, T/C [7]: 90.2%
viability, T/C [8]: 95.7%
viability, T/C [9]: 89.7%
viability, T/C [10]: 61.2%
viability, T/C [11]: 50.9%
viability, T/C [12]: 82.4%
viability, T/C [13]: 98.9%
viability, T/C [14]: 99.9%
viability, T/C [15]: 83%
viability, T/C [16]: 52.3%
viability, T/C [17]: 41.5%
viability, T/C [18]: 114%
viability, T/C [19]: 101%
viability, T/C [20]: 96.7%
viability, T/C [21]: 79.3%
viability, T/C [22]: 61.7%
viability, T/C [23]: 40.3%
viability, T/C [24]: 104%
viability, T/C [25]: 86.2%
viability, T/C [26]: 116%
viability, T/C [27]: 73%
viability, T/C [28]: 54.6%
viability, T/C [29]: 42.7%
viability, T/C [30]: 87.7%
viability, T/C [31]: 88.9%
viability, T/C [32]: 79.3%
viability, T/C [33]: 57.9%
viability, T/C [34]: 44.8%
viability, T/C [35]: 35.5%

Compound: CC(C)CC(NC(=O)C(Cc1ccccc1)NC(=O)c1cnccn1)B(O)O (stereo not drawn)
viability, T/C (compound 0.000949 µM): 93.7% and 85.5% and 84.3%
viability, T/C (compound 0.003 µM): 94.1% and 71.8% and 78.5%
viability, T/C (compound 0.03 µM): 1.41% and 1.04% and 0.32%
viability, T/C (compound 0.0949 µM): 0.32% and 0.33% and 0.22%
viability, T/C (compound 0.3 µM): 0.33% and 0.39% (2×)
IC50 (curve of compound): 16.5 nM and 13.1 nM and 4.71 nM

Second part, led by results:

IC50 [1]: 218 nM
IC50 [2]: 200 nM
IC50 [3]: 251 nM
IC50 [4]: 108 nM
IC50 [5]: < 9.49 nM
Compound: O=C(C=Cn1cnc(-c2cc(C(F)(F)F)cc(C(F)(F)F)c2)n1)NNc1cnccn1 + Cc1cncc(-c2nc(NCCc3c[nH]c4ccccc34)c3ncn(C(C)C)c3n2)c1
viability, T/C [36]: 65.6%
viability, T/C [37]: 59.7%
viability, T/C [38]: 53.2%
viability, T/C [39]: 51.5%
viability, T/C [56]: 37.1%
viability, T/C [57]: 26.3%
viability, T/C [40]: 76.1%
viability, T/C [41]: 58.9%
viability, T/C [42]: 57.6%
viability, T/C [43]: 49.3%
viability, T/C [58]: 39.6%
viability, T/C [59]: 29.1%
viability, T/C [44]: 74.5%
viability, T/C [45]: 70%
viability, T/C [46]: 54.5%
viability, T/C [47]: 49.4%
viability, T/C [60]: 38.9%
viability, T/C [61]: 24.9%
viability, T/C [48]: 78.7%
viability, T/C [49]: 59.1%
viability, T/C [50]: 53.2%
viability, T/C [51]: 36.8%
viability, T/C [62]: 40.9%
viability, T/C [63]: 23.8%
viability, T/C [52]: 38.3%
viability, T/C [53]: 35.9%
viability, T/C [54]: 28.2%
viability, T/C [55]: 24.7%
viability, T/C [64]: 19.7%
viability, T/C [65]: 19.8%

IC50 [1]: 81.6 nM
IC50 [2]: 29.4 nM
IC50 [3]: 23.3 nM
IC50 [4]: 21.8 nM
IC50 [5]: 12.5 nM
Compound: O=C(C=Cn1cnc(-c2cc(C(F)(F)F)cc(C(F)(F)F)c2)n1)NNc1cnccn1 + CC(CO)NC(=O)c1cc(-c2ccc(Cl)cc2)nn(-c2cnn(C)c2)c1=O
viability, T/C [36]: 59.2%
viability, T/C [37]: 58.6%
viability, T/C [38]: 42.9%
viability, T/C [39]: 45.7%
viability, T/C [56]: 39.4%
viability, T/C [57]: 29.1%
viability, T/C [40]: 85.6%
viability, T/C [41]: 44.6%
viability, T/C [42]: 43.8%
viability, T/C [43]: 38%
viability, T/C [58]: 37.7%
viability, T/C [59]: 23.9%
viability, T/C [44]: 62.8%
viability, T/C [45]: 40.3%
viability, T/C [46]: 38.9%
viability, T/C [47]: 38.8%
viability, T/C [60]: 34.6%
viability, T/C [61]: 21.7%
viability, T/C [48]: 58.9%
viability, T/C [49]: 38.7%
viability, T/C [50]: 50.4%
viability, T/C [51]: 29.4%
viability, T/C [62]: 27.6%
viability, T/C [63]: 25.6%
viability, T/C [52]: 52.7%
viability, T/C [53]: 42.1%
viability, T/C [54]: 27.5%
viability, T/C [55]: 26.7%
viability, T/C [64]: 22.4%
viability, T/C [65]: 17.7%
